Measurements reported in patent US7923554B2, “HIV inhibiting 1,2,4-triazin-6-one derivatives” (Janssen Pharmaceutica N.V., priority 2004, dated 2011).

System: not given
Assay: not given
Conditions: not given

Row | Structure (SMILES) | melting point [°C]
1 | Cc1cc(CCC#N)cc(C)c1Oc1n[nH]c(=O)c(Nc2ccc(C#N)cc2)n1 [Compound 3] | 351 to 352
2 | N#Cc1ccc(Nc2nc(Nc3c(F)cc(I)cc3F)n[nH]c2=O)cc1 [Compound 1] | 287 to 290
3 | N#CCCn1nc(Nc2c(F)cc(Br)cc2F)nc(Nc2ccc(C#N)cc2)c1=O [Compound 11] | 246 to 247
4 | Cc1cc(CCC#N)cc(C)c1Nc1nc(Nc2ccc(C#N)cc2)c(=O)n(C)n1 [Compound 9] | 317 to 320
5 | N#CCCc1cc(Br)c(Nc2n[nH]c(=O)c(Nc3ccc(C#N)cc3)n2)c(Br)c1 [Compound 2] | 339 to 340
6 | CCn1nc(Nc2c(C)cc(CCC#N)cc2C)nc(Nc2ccc(C#N)cc2)c1=O [Compound 15] | 243 to 245
7 | Cc1cc(C)c(S(=O)(=O)c2n[nH]c(=O)c(Nc3ccc(C#N)cc3)n2)c(C)c1 [Compound 7] | 303 to 304
8 | Cc1cc(CCC#N)cc(C)c1Nc1nc(Nc2ccc(C#N)cc2)c(=O)n(CC#N)n1 | 243 to 246

System: HIV-1
Assay: not given
Conditions: not given

Row | Structure (SMILES) | pEC50 (-logEC50)
9 | N#Cc1ccc(Nc2nc(Nc3c(F)cc(Br)cc3F)n[nH]c2=O)cc1 [Compound 30] | 9.2
10 | Cc1cc(C)c(Sc2n[nH]c(=O)c(Nc3ccc(C#N)cc3)n2)c(C)c1 [Compound 6] | 7.8
11 | N#Cc1ccc(Nc2nc(Nc3c(F)cc(I)cc3F)n[nH]c2=O)cc1 [Compound 1] | 9.5
12 | Cc1cc(C)c(S(=O)(=O)c2n[nH]c(=O)c(Nc3ccc(C#N)cc3)n2)c(C)c1 [Compound 52] | 8.8
13 | N#CCCn1nc(Nc2c(F)cc(Br)cc2F)nc(Nc2ccc(C#N)cc2)c1=O [Compound 11] | 9.1
14 | N#Cc1ccc(Nc2nc(Nc3c(F)cc(I)cc3F)n[nH]c2=O)cc1 [Compound 36] | 9.9
15 | Cc1cc(CCC#N)cc(C)c1Nc1n[nH]c(=O)c(Nc2ccc(C#N)cc2)n1 [Compound 32] | 8.9
16 | Cc1cc(C)c(Sc2n[nH]c(=O)c(Nc3ccc(C#N)cc3)n2)c(C)c1 [Compound 41] | 9.7
17 | Cn1nc(Nc2c(Br)cc(CCC#N)cc2Br)nc(Nc2ccc(C#N)cc2)c1=O [Compound 8] | 10.0
18 | COc1cc(CCC#N)c(Br)cc1Nc1n[nH]c(=O)c(Nc2ccc(C#N)cc2)n1 [Compound 67] | 9.0
19 | Cc1cc(CCC#N)cc(C)c1Nc1n[nH]c(=O)c(Nc2ccc(C#N)cc2)n1 [Compound 5] | 9.6
20 | CCn1nc(Nc2c(C)cc(CCC#N)cc2C)nc(Nc2ccc(C#N)cc2)c1=O [Compound 15] | 9.7
21 | Cn1nc(Nc2c(Br)cc(CCC#N)cc2Br)nc(Nc2ccc(C#N)cc2)c1=O [Compound 55] | 9
22 | Cc1cc(C)c(S(=O)(=O)c2n[nH]c(=O)c(Nc3ccc(C#N)cc3)n2)c(C)c1 [Compound 7] | 7.7
23 | N#CCCn1nc(Nc2c(F)cc(Br)cc2F)nc(Nc2ccc(C#N)cc2)c1=O [Compound 34] | 8.5
24 | Cc1cc(CCC#N)cc(C)c1Nc1n[nH]c(=O)c(Nc2ccc(C#N)cc2)n1 [Compound 51] | 9.6

System: HIV-1
Assay: microbe, parasite or virus in culture
Conditions: Human immunodeficiency virus 1, MT4, read-out: pEC50 (-logEC50) (converted)
Experimental: A rapid, sensitive and automated assay procedure was used for the in vitro evaluation of anti-HIV agents. […] In these cells, engineered with GFP (and an HIV-specific promotor), ongoing HIV-infection was measured fluorometrically. Cytotoxicity is measured in the same cells, but engineered with GFP under a constitutional promotor. The infection (or inhibition thereof) of HIV infected cells and the fluorescence of mock-infected cells is assessed by the fluorescent GFP signal generated by the two above mentioned cell lines.

Row | Structure (SMILES) | EC50 [nM]
25 | Cc1cc(/C=C/C#N)cc(C)c1Nc1nc(Nc2ccc(C#N)cc2)n[nH]c1=O [Compound 27] | 0.2
26 | COc1cc(/C=C/C#N)cc(Cl)c1Nc1n[nH]c(=O)c(Nc2ccc(C#N)cc2)n1 [Compound 71] | 0.794
27 | Cc1cc(C#N)cc(C)c1Oc1n[nH]c(=O)c(Nc2ccc(C#N)cc2)n1 [Compound 48] | 0.398
28 | Cc1cc(CCC#N)cc(C)c1Oc1n[nH]c(=O)c(Nc2ccc(C#N)cc2)n1 [Compound 3] | 0.631
29 | COc1cc(/C=C/C#N)cc(C)c1Nc1n[nH]c(=O)c(Nc2ccc(C#N)cc2)n1 [Compound 29] | 316
30 | Cc1cc(CCC#N)cc(C)c1Nc1nc(Nc2ccc(C#N)cc2)c(=O)n(CCO)n1 [Compound 14] | 0.316
31 | C/C(=C\C#N)c1cc(C)c(Nc2n[nH]c(=O)c(Nc3ccc(C#N)cc3)n2)c(C)c1 [Compound 77] | 0.794
32 | C/C(C#N)=C\c1cc(C)c(Nc2n[nH]c(=O)c(Nc3ccc(C#N)cc3)n2)c(C)c1 [Compound 68] | 1.2
33 | COc1cc(/C=C/C#N)cc(C)c1Nc1nc(Nc2ccc(C#N)cc2)c(=O)n(C)n1 [Compound 42] | 0.398
34 | N#C/C=C/c1cc(Cl)c(Nc2n[nH]c(=O)c(Nc3ccc(C#N)cc3)n2)c(Br)c1 [Compound 25] | 0.631
35 | N#C/C=C/c1cc(Cl)c(Nc2n[nH]c(=O)c(Nc3ccc(C#N)cc3)n2)c(Cl)c1 [Compound 24] | 0.631
36 | Cc1cc(C)c(Sc2nc(Nc3ccc(C#N)cc3)nn(C)c2=O)c(C)c1 [Compound 22] | 15.8
37 | Cc1cc(CCC#N)cc(C)c1Nc1nc(Nc2ccc(C#N)cc2)c(=O)n(C)n1 [Compound 9] | 0.501
38 | Cc1cc(CCC#N)cc(C)c1Oc1nc(Nc2ccc(C#N)cc2)c(=O)n(CCO)n1 [Compound 70] | 0.794
39 | Cc1cc(C)c(Nc2n[nH]c(=O)c(Nc3ccc(C#N)cc3)n2)c(C)c1 [Compound 23] | 0.794
40 | C/C(=C\C#N)c1cc(C)c(Nc2nc(Nc3ccc(C#N)cc3)c(=O)n(C)n2)c(C)c1 [Compound 78] | 0.794
41 | Cn1nc(Nc2c(Cl)cc(CCC#N)cc2Cl)nc(Nc2ccc(C#N)cc2)c1=O [Compound 17] | 1
42 | Cc1cc(/C=C/C#N)cc(C)c1Oc1nc(Nc2ccc(C#N)cc2)c(=O)n(CC#N)n1 [Compound 61] | 1.26
43 | COc1cc(CCC#N)cc(C)c1Nc1n[nH]c(=O)c(Nc2ccc(C#N)cc2)n1 [Compound 39] | 0.1
44 | Cc1cc(C)c(Sc2nc(Nc3ccc(C#N)cc3)n[nH]c2=O)c(C)c1 [Compound 20] | 0.631
45 | N#CCCc1cc(Cl)c(Nc2n[nH]c(=O)c(Nc3ccc(C#N)cc3)n2)c(Cl)c1 [Compound 58] | 3.16
46 | CCn1nc(Nc2c(C)cc(/C=C/C#N)cc2C)nc(Nc2ccc(C#N)cc2)c1=O [Compound 54] | 75.9
47 | COc1cc(C)c(Nc2nc(Nc3ccc(C#N)cc3)c(=O)n(C)n2)c(C)c1 [Compound 35] | 10
48 | Cc1cc(/C=C/C#N)cc(C)c1Oc1nc(Nc2ccc(C#N)cc2)c(=O)n(CCO)n1 [Compound 62] | 0.316
49 | Cc1cc(C)c(Nc2nc(Nc3ccc(C#N)cc3)n[nH]c2=O)c(C)c1 [Compound 16] | 1
50 | Cc1cc(/C=C/C#N)cc(C)c1Nc1nc(Nc2ccc(C#N)cc2)nn(C)c1=O [Compound 28] | 3.98
51 | COc1cc(CCC#N)cc(Cl)c1Nc1nc(Nc2ccc(C#N)cc2)c(=O)n(C)n1 [Compound 72] | 0.631

Row | Structure (SMILES) | EC50 [nM]
52 | COc1cc(CCC#N)c(Br)cc1Nc1n[nH]c(=O)c(Nc2ccc(C#N)cc2)n1 [Compound 67] | 1.51
53 | Cc1cc(C)c(Sc2nc(Nc3ccc(C#N)cc3)c(=O)n(C)n2)c(C)c1 [Compound 43] | 0.316
54 | CCn1nc(Nc2c(Cl)cc(CCC#N)cc2OC)nc(Nc2ccc(C#N)cc2)c1=O [Compound 73] | 0.631
55 | CCn1nc(Oc2c(C)cc(CCC#N)cc2C)nc(Nc2ccc(C#N)cc2)c1=O [Compound 69] | 0.891
56 | N#C/C=C/c1cc(F)c(Nc2n[nH]c(=O)c(Nc3ccc(C#N)cc3)n2)c(F)c1 [Compound 38] | 0.126
57 | Cc1cc(CCC#N)cc(C)c1Nc1nc(Nc2ccc(C#N)cc2)c(=O)n(CC(N)=O)n1 [Compound 33] | 0.631
58 | Cc1cc(C)c(Nc2nc(Nc3ccc(C#N)cc3)nn(C)c2=O)c(C)c1 [Compound 18] | 12.6
59 | Cc1cc(C#N)cc(C)c1Oc1nc(Nc2ccc(C#N)cc2)c(=O)n(C)n1 [Compound 50] | 0.158
60 | Cc1cc(C#N)cc(C)c1Nc1nc(Nc2ccc(C#N)cc2)c(=O)n(C)n1 [Compound 46] | 0.251
61 | CCn1nc(Nc2c(C)cc(CCC#N)cc2C)nc(Nc2ccc(C#N)cc2)c1=O [Compound 37] | 0.126
62 | N#CCCc1cc(Cl)c(Nc2n[nH]c(=O)c(Nc3ccc(C#N)cc3)n2)c(Br)c1 [Compound 19] | 6.31
63 | N#CCCc1cc(Br)c(Nc2n[nH]c(=O)c(Nc3ccc(C#N)cc3)n2)c(Br)c1 [Compound 2] | 0.1
64 | Cc1cc(/C=C/C#N)cc(C)c1Nc1n[nH]c(=O)c(Nc2ccc(C#N)cc2)n1 [Compound 4] | 0.631
65 | COc1cc(CCC#N)cc(Cl)c1Nc1nc(Nc2ccc(C#N)cc2)c(=O)n(CCO)n1 [Compound 74] | 0.794
66 | CCn1nc(Nc2c(C)cc(CCC#N)cc2OC)nc(Nc2ccc(C#N)cc2)c1=O [Compound 40] | 0.316
67 | Cc1cc(CCC#N)cc(C)c1Oc1nc(Nc2ccc(C#N)cc2)c(=O)n(C)n1 [Compound 56] | 0.631
68 | COc1cc(CCC#N)cc(Cl)c1Nc1nc(Nc2ccc(C#N)cc2)c(=O)n(CC#N)n1 [Compound 75] | 0.794
69 | COc1cc(CCC#N)cc(C)c1Nc1nc(Nc2ccc(C#N)cc2)c(=O)n(CCO)n1 [Compound 47] | 0.794
70 | N#CCCc1cc(Br)c(Nc2n[nH]c(=O)c(Nc3ccc(C#N)cc3Br)n2)c(Br)c1 [Compound 49] | 0.316
71 | Cc1cc(CCC#N)cc(C)c1Oc1nc(Nc2ccc(C#N)cc2)c(=O)n(CC#N)n1 [Compound 53] | 0.398
72 | N#Cc1ccc(Nc2nc(Nc3c(F)cc(Br)cc3F)n[nH]c2=O)cc1 [Compound 10] | 0.316
73 | Cc1cc(/C=C/C#N)cc(C)c1Oc1nc(Nc2ccc(C#N)cc2)c(=O)n(C)n1 [Compound 60] | 2.51
74 | Cn1nc(Nc2c(Cl)cc(CCC#N)cc2Br)nc(Nc2ccc(C#N)cc2)c1=O [Compound 21] | 1
75 | N#C/C=C/c1cc(Br)c(Nc2n[nH]c(=O)c(Nc3ccc(C#N)cc3)n2)c(Br)c1 [Compound 26] | 0.631
76 | Cc1cc(CCC#N)cc(C)c1Nc1nc(Nc2ccc(C#N)cc2)c(=O)n(CC#N)n1 [Compound 31] | 0.316
77 | Cc1cc(/C=C/C#N)cc(C)c1Oc1n[nH]c(=O)c(Nc2ccc(C#N)cc2)n1 [Compound 59] | 1.26
